Laboratory results taken from US10513559B2, “Amatoxin-armed therapeutic cell surface binding components designed for tumour therapy” (Deutsches Krebsforschungszentrum, priority 2009, dated 2019).

Assays:
[1] = tested on: MCF-7 breast cancer cells; experiment: binding of conjugates to MCF-7 cells by flow cytometry; design: species or system human; details: 1 μg/ml, 1 h on ice; FITC-labeled secondary antibody; identical antibody amounts
Procedure: The abbreviation FL1-H stands for “fluorescence 1 height” which means the intensity of fluorescence 1, i.e. the green channel for FITC.
Binding of huHEA125-amanitin and huHEA125-phalloidin conjugates versus non-conjugated huHEA125 antibody was analyzed by flow cytometry. MCF-7 target cells were washed twice in FACS buffer (Dulbecco's PBS with 1% heat-inactivated fetal calf serum and 0.1% sodium azide) counted and adjusted to 2×10^7 cells per ml. Fifty μl of cell suspension was given to each well of a 96 well U-bottom microtiter plate. Immunotoxins huHEA125-amanitin1, huHEA125-amanitin4 and huHEA125-phalloidin as well as unconjugated huHEA125 antibody were added at a concentration of 1 μg/ml in a volume of 100 μl per well and incubated for 1 h on ice. The plate was centrifuged (2 min at 2000 rpm) and the supernatant was removed from the cells. Cells were re-suspended in 150 μl of FACS buffer and centrifuged again. Subsequently, 100 μl of FITC-labeled F(ab′)2 goat anti-human IgG (H+L) secondary antibody was added per well and incubated again for 1 h on ice. After two washing steps by centrifugation, cells were taken up in 100 μl/well of propidium iodide solution (1 μg/ml in FACS buffer) allowing discrimination of dead cells. Analysis was performed on a FACScan cytometer (Becton and Dickinson, Heidelberg, Germany) using CellQuest software.

[2] = tested on: MCF-7 cells; experiment: proliferation assay, [3H]-thymidine incorporation, MCF-7; type: cell-based, human; details: 72 or 96 h, amanitin concentration, read-out: IC50 of inhibition of cell proliferation
Procedure: Inhibition of cell growth by amanitin-IgG conjugates was determined by incorporation of [^3H]-thymidine. Serial dilutions of amanitin-huHEA125 and amanitin in complete medium (RPMI 1640 supplemented with 10% heat-inactivated FCS, 2 mM L-glutamine and 1 mM sodium pyruvate) ranging from 2×10^−5 M to 6×10^−13 M were prepared in triplicates in a volume of 100 μl in the wells of a 96 well flat-bottom tissue culture microtiter plate. […] Plates were incubated in a humidified atmosphere at 37° C. and 5% CO2 for 72 or 96 h. At 20 h before the end of the assay, 1 μCi of [^3H]-thymidine was added. Subsequently, plates were processed with a Tomtec cell harvester and the incorporated radioactivity was determined by liquid scintillation counting (Wallac Betaplate Liquid Scintillation Counter, PerkinElmer Life and Analytical Sciences) and given as cpm.
Three examples of growth inhibition induced by different amanitin-IgG conjugates are depicted in FIGS. 5, 6, and 9. In all three experiments MCF-7 cells were used. […] In the experiment outlined in FIG. 6 huHEA125-Amanitin4 was compared with an alpha-phalloidin huHEA125 conjugate and with free Amanitin.

Row | Substance | mean fluorescence intensity (MFI) [1] | IC50 [2]
1 | huHEA125: chimeric anti-EpCAM antibody: mouse HEA125 variable domains, human kappa light and IgG1 heavy constant chains (SEQ ID NO: 1/2, 11) | 1094 | 
2 | Amanitin [reference compound] |  | ~100 nM
3 | α-Amanitin-glutarate-huHEA125 [huHEA125-Amanitin3] |  | ~0.002 nM
